Measured values: patent US20240216311A1, “FULLY-DILUTABLE, SELF-MICROEMULSIFYING DELIVERY SYSTEMS (SMEDDS) FOR POORLY WATER-SOLUBLE POLAR SOLUTES” (THE GOVERNING COUNCIL OF THE UNIVERSITY OF TORONTO, priority 2020, published 2024)
Read-outs that look alike come from different tables or passages of the source.

What was measured:
[1] = Characteristic curvature (Cc) by salinity phase scans with reference surfactant C9E5; type: physicochemical; settings: for Cc (characteristic curvature): methodology of Example 1, C9E5 as reference surfactant; for dS*/dx: polar oil in mixtures with C9E5, heptane (cyclohexane for CBD) as oil
Experimental: The characteristic curvature (Cc) of the candidate hydrophilic linker with extremely negative Cc (Cc<−5) was determined following the mixed reference and test surfactant method used by Zarate et al.. […] The salinity phase scans were conducted by vortex-mixing 2 mL of the aqueous surfactant solution, containing a set value of sodium chloride (g NaCl/100 mL of aqueous surfactant solution or % w/v NaCl) with 2 mL of n-heptane at room temperature in 2-dram vials sealed with a silicone-lined cap. […] The difference between the initial volume added to the vial (2 mL), and the excess phase volume was considered the volume solubilized. The ratio between the volume solubilized (in mL) and the total mass of surfactant mixture (0.2 g) was reported as the solubilization parameter (SP) for the given phase at the set salinity.

[2] = cited from earlier work; for Polar area: from ChemSpider; for Dipole moment: from Tantishaiyakul et al. [33]
[3] = literature value, cited from earlier work
[4] = adapted from [21]; cited from earlier work
[5] = from Drugbank, nonylphenol from ChemSpider

Nonylphenol
Cc (characteristic curvature) [1]: +7.2 | Polar area [2]: 20 Å^2 | Number of H-acceptors [2, 5]: 2 | Number of H-donors [2, 5]: 1 | pKa [2, 5]: Neutral | Dipole moment [2]: 1.6 Debye | logP ([2]; octanol-water, from Drugbank, nonylphenol from ChemSpider): 5.8

Sorbitan monolaurate [Sorbitan monolaurate, Span 20]
Cc (characteristic curvature) [3]: +3.5 ± 0.8

CCCCCCCC/C=C\CCCCCCCC(=O)OCCOCC(OCCO)C1OCC(OCCO)C1OCCO (centres unmarked) [Tween 80]
L [4]: 34 Å | vs/as [4]: 25.8 Å | Cc (characteristic curvature) [3]: −3.0 ± 0.7

C=CCc1ccc(O)c(OC)c1 [Eugenol]
Cc (characteristic curvature) [1]: +2.8 | dS*/dx [1]: −37 % w/v NaCl | Polar area [2]: 29 Å^2 | Number of H-acceptors [2, 5]: 2 | Number of H-donors [2, 5]: 1 | pKa [2, 5]: Neutral | Dipole moment [2]: 2.8 Debye

CCCCCCCC(=O)[O-].[Na+] [Sodium octanoate]
L [4]: 12 Å | vs/as [4]: 4.6 Å | Cc (characteristic curvature) [3]: −2.1 ± 0.1

CCCCCCCC/C=C\CCCCCCCC(=O)[O-].[Na+] [Sodium oleate]
L [4]: 30 Å | vs/as [4]: 8.4 Å | Cc (characteristic curvature) [3]: −1.7 ± 0.1

C=C(C)[C@@H]1CCC(C)=C[C@H]1c1c(O)cc(CCCCC)cc1O [Cannabidiol (CBD), Cannabidiol]
Cc (characteristic curvature) [1]: +2.6 | dS*/dx [1]: −38 % w/v NaCl | Polar area [2]: 40 Å^2 | Aqueous solubility [2, 5]: 0.0013 wt % | Number of H-acceptors [2, 5]: 2 | Number of H-donors [2, 5]: 2 | pKa [2, 5]: Neutral | Dipole moment [2]: 1.9 Debye

CCCCCCCC/C=C\CCCCCCCC(=O)O [Oleic acid]
Cc (characteristic curvature) [3]: 0 ± 0.1

Sorbitan monooleate [Sorbitan monooleate (Span 80)]
Cc (characteristic curvature) [3]: +5.0 ± 1^

CCOC(=O)c1ccc(N)cc1 [Benzocaine]
Cc (characteristic curvature) [1]: +1.6 | dS*/dx [1]: −27 % w/v NaCl

Sucrose distearate
Cc (characteristic curvature) [3]: +4 ± 0.2

Disodium stearoyl capryl glutamate
vs/as [4]: 7.9 Å | Cc (characteristic curvature) [3]: −5 ± 0.2

CCCCCCCC/C=C\CCCCCCCC(=O)OCC(O)CO (centres unmarked) [Glycerol monooleate]
Cc (characteristic curvature) [3]: +6.6 ± 1.5 | Cc (characteristic curvature) ([3]; listed as Peceol™): +6.6

CC(C)Cc1ccc(C(C)C(=O)O)cc1 (racemic) [Ibuprofen]
Cc (characteristic curvature) [1]: +4.9 | Polar area [2]: 37 Å^2 | Number of H-acceptors [2, 5]: 2 | Number of H-donors [2, 5]: 1 | Dipole moment [2]: 1.9 Debye

Sucrose palmitate
Cc (characteristic curvature) [3]: −0.8 ± 0.2
